Values after ≈ are worked out from the molar mass of the structure shown.
Key:
[1] = test system: Staphylococcus haemolyticus 105; assay: broth micro-dilution MIC; format: cell-based
Method: (§1) The formula I compounds have in vitro and in vivo activity against Gram-positive pathogenic bacteria. The MIC's were determined using a standard broth micro-dilution assay.

[2] = test system: Streptococcus pneumoniae P1; assay: broth micro-dilution MIC; format: cell-based
Method: as §1

[3] = test system: Staphylococcus epidermidis 270; assay: broth micro-dilution MIC; format: cell-based
Method: as §1

[4] = test system: Haemophilus influenzae RD; assay: broth micro-dilution MIC; format: cell-based; settings: Haemophilus influenzae RD
Method: as §1

[5] = test system: Entercoccus faecium 2041; assay: broth micro-dilution MIC; format: cell-based; settings: Entercoccus faecium 2041
Method: as §1

[6] = test system: Entercoccus faecium 180; assay: broth micro-dilution MIC; format: cell-based; settings: Entercoccus faecium 180
Method: as §1

[7] = test system: Staphylococcus haemolyticus 415; assay: broth micro-dilution MIC; format: cell-based
Method: as §1

[8] = test system: Enterococcus gallinarum 245; assay: broth micro-dilution MIC; format: cell-based; settings: Enterococcus gallinarum 245
Method: as §1

[9] = test system: vancomycin-susceptible enterococci; assay: broth micro-dilution, mean geometric MIC; format: cell-based, Enterococcus faecium and Enterococcus faecalis; settings: enterococci, 24-hour incubation
[10] = test system: vancomycin-resistant enterococci; assay: broth micro-dilution, mean geometric MIC; format: cell-based, Enterococcus faecium and Enterococcus faecalis; settings: enterococci, 24-hour incubation
[11] = test system: Staphylococcus aureus S13E; format: cell-based
Method: (§2) The MIC's were determined using a standard broth micro-dilution assay.

[12] = test system: Staphylococcus aureus SA1199B; format: cell-based
Method: as §2

[13] = test system: Entercoccus faecium 276; assay: broth micro-dilution MIC; format: cell-based
Method: as §2

[14] = test system: Staphylococcus aureus 489; assay: broth micro-dilution MIC; format: cell-based
Method: as §2

[15] = test system: Streptococcus pyogenes C203; assay: broth micro-dilution MIC; format: cell-based
Method: as §2

[16] = test system: Staphylococcus aureus 491; assay: broth micro-dilution MIC; format: cell-based
Method: as §2

[17] = test system: Entercoccus faecium 180-1; assay: broth micro-dilution MIC; format: cell-based
Method: as §2

[18] = test system: Staphylococcus aureus X778; assay: broth micro-dilution MIC; format: cell-based
Method: as §2

[19] = test system: Staphylococcus aureus 447; assay: broth micro-dilution MIC; format: cell-based
Method: as §2

[20] = test system: Staphylococcus aureus X400; assay: broth micro-dilution MIC; format: cell-based
Method: as §2

[21] = test system: Staphylococcus aureus SA1199; assay: broth micro-dilution MIC; format: cell-based
Method: as §2

[22] = test system: Staphylococcus aureus 446; assay: broth micro-dilution MIC; format: cell-based
Method: as §2

[23] = test system: Staphylococcus aureus SA1199A; assay: broth micro-dilution MIC; format: cell-based
Method: as §2

[24] = test system: Escherichia coli EC14; assay: broth micro-dilution MIC; format: cell-based
Method: as §1

Row | SMILES | MIC [1] [µg/mL] | MIC [2] [µg/mL] | MIC [3] [µg/mL] | MIC [4] [µg/mL] | MIC [5] [µg/mL] | MIC [6] [µg/mL] | MIC [7] [µg/mL] | MIC [8] [µg/mL] | mean geometric MIC, Vancomycin Sensitive Strains [9] [µg/mL] | mean geometric MIC, Vancomycin Resistant Strains [10] [µg/mL] | MIC [11] [µg/mL] | MIC [12] [µg/mL] | MIC [13] [µg/mL] | MIC [15] [µg/mL] | MIC [16] [µg/mL] | MIC [17] [µg/mL] | MIC [18] [µg/mL] | MIC [19] [µg/mL] | MIC [20] [µg/mL] | MIC [21] [µg/mL] | also measured
1 | CNC(CC(C)C)C(=O)NC1C(=O)NC(CC(N)=O)C(=O)NC2C(=O)NC3C(=O)NC(C(=O)NC(C(=O)O)c4cc(O)cc(O)c4-c4cc3ccc4O)C(OC3CC(C)(N)C(O)C(C)O3)c3ccc(c(Cl)c3)Oc3cc2cc(c3OC2OC(CO)C(O)C(O)C2OC2CC(C)(NCc3cccc(Oc4cccc(C(F)(F)F)c4)c3)C(O)C(C)O2)Oc2ccc(cc2Cl)C1O (centres unmarked) [Compound 203] | 1 (≈ 0.543 µM) | ≤ 0.06 | 0.5 (≈ 0.271 µM) | 16 (≈ 8.68 µM) | 0.25 (≈ 0.136 µM) | 0.125 (≈ 0.0678 µM) | 2 (≈ 1.09 µM) | 2 (≈ 1.09 µM) | 0.036 | 1.0 | 2 (≈ 1.09 µM) | 1 (≈ 0.543 µM) | 0.5 (≈ 0.271 µM) | ≤ 0.06 | 1 (≈ 0.543 µM) | ≤ 0.06 | 1 (≈ 0.543 µM) | 1 (≈ 0.543 µM) | 1 (≈ 0.543 µM) | 2 (≈ 1.09 µM) | MIC [14]: 0.5 µg/mL (≈ 0.271 µM); MIC [22]: 0.5 µg/mL (≈ 0.271 µM); MIC [23]: 0.5 µg/mL (≈ 0.271 µM)
2 | CNC(CC(C)C)C(=O)NC1C(=O)NC(CC(N)=O)C(=O)NC2C(=O)NC3C(=O)NC(C(=O)NC(C(=O)O)c4cc(O)cc(O)c4-c4cc3ccc4O)C(OC3CC(C)(N)C(O)C(C)O3)c3ccc(c(Cl)c3)Oc3cc2cc(c3OC2OC(CO)C(O)C(O)C2OC2CC(C)(NCc3ccc(OCCCCCCc4ccccc4)cc3)C(O)C(C)O2)Oc2ccc(cc2Cl)C1O (centres unmarked) [Compound 219] | 2 (≈ 1.08 µM) | ≤ 0.06 | 4 (≈ 2.15 µM) | 32 (≈ 17.2 µM) | 2 (≈ 1.08 µM) | 1 (≈ 0.538 µM) | 2 (≈ 1.08 µM) | 2 (≈ 1.08 µM) | 0.044 | 0.71 | 8 (≈ 4.3 µM) | 8 (≈ 4.3 µM) | 2 (≈ 1.08 µM) | ≤ 0.06 | 4 (≈ 2.15 µM) | 1 (≈ 0.538 µM) | 8 (≈ 4.3 µM) | 8 (≈ 4.3 µM) | 8 (≈ 4.3 µM) | 4 (≈ 2.15 µM) | MIC [14]: 8 µg/mL (≈ 4.3 µM); MIC [22]: 8 µg/mL (≈ 4.3 µM); MIC [23]: 1 µg/mL (≈ 0.538 µM)
3 | CNC(CC(C)C)C(=O)NC1C(=O)NC(CC(N)=O)C(=O)NC2C(=O)NC3C(=O)NC(C(=O)NC(C(=O)O)c4cc(O)cc(O)c4-c4cc3ccc4O)C(OC3CC(C)(N)C(O)C(C)O3)c3ccc(c(Cl)c3)Oc3cc2cc(c3OC2OC(CO)C(O)C(O)C2OC2CC(C)(NCCCCCCCCCC#Cc3ccccc3)C(O)C(C)O2)Oc2ccc(cc2Cl)C1O (centres unmarked) [Compound 236] | 4 (≈ 2.2 µM) | ≤ 0.06 | 2 (≈ 1.1 µM) | 32 (≈ 17.6 µM) | 1 (≈ 0.55 µM) | 1 (≈ 0.55 µM) | 4 (≈ 2.2 µM) | 4 (≈ 2.2 µM) | 0.5 | 1.4 | 4 (≈ 2.2 µM) | 4 (≈ 2.2 µM) | 2 (≈ 1.1 µM) | ≤ 0.06 | 4 (≈ 2.2 µM) | 1 (≈ 0.55 µM) | 2 (≈ 1.1 µM) | 4 (≈ 2.2 µM) | 2 (≈ 1.1 µM) | 4 (≈ 2.2 µM) | MIC [14]: 4 µg/mL (≈ 2.2 µM); MIC [22]: 1 µg/mL (≈ 0.55 µM); MIC [23]: 2 µg/mL (≈ 1.1 µM)
4 | CNC(CC(C)C)C(=O)NC1C(=O)NC(CC(N)=O)C(=O)NC2C(=O)NC3C(=O)NC(C(=O)NC(C(=O)O)c4cc(O)cc(O)c4-c4cc3ccc4O)C(OC3CC(C)(NCc4ccc5c(c4)Cc4ccccc4-5)C(O)C(C)O3)c3ccc(c(Cl)c3)Oc3cc2cc(c3OC2OC(CO)C(O)C(O)C2OC2CC(C)(NCc3ccc4c(c3)Cc3ccccc3-4)C(O)C(C)O2)Oc2ccc(cc2Cl)C1O (centres unmarked) [Compound 279] | 4 (≈ 2.05 µM) | ≤ 0.06 | 1 (≈ 0.513 µM) | > 64 | ≤ 0.06 | ≤ 0.06 | 2 (≈ 1.03 µM) | 2 (≈ 1.03 µM) | 0.11 | 2.4 | 0.25 (≈ 0.128 µM) | ≤ 0.06 | 0.125 (≈ 0.0641 µM) | ≤ 0.06 | 0.25 (≈ 0.128 µM) | ≤ 0.06 | 0.25 (≈ 0.128 µM) | 1 (≈ 0.513 µM) | 0.25 (≈ 0.128 µM) | 0.5 (≈ 0.257 µM) | MIC [24]: > 64 µg/mL; MIC [22]: 0.5 µg/mL (≈ 0.257 µM); MIC [23]: ≤ 0.06 µg/mL
